Reference: PubChem BioAssay AID449740 (Southern Research Specialized Biocontainment Screening …, 2010)
Active and inactive are the calls of the source. How the calls were made is not given here.

Key:
[1] = polymyxin IC50 shift, round 3, mechanism study, late-stage follow-up (AID 449740); conditions: Salmonella Typhi WT vs phoP-, polymyxin IC50 shift, OD600 24 h, at 150 µM, stronger effect = higher value
[2] = tested on: Salmonella Typhi WT vs phoP-, polymyxin IC50 shift, OD600 24 h; test: as above
[3] = measured here: phoP- strain shift
[4] = measured here: wild-type strain shift

Compound: O=C(Nc1ccc(Cl)cc1)N1CCCN(Cc2ccc(Br)cc2)C1
- polymyxin IC50 shift difference WT minus phoP- [1]: -3.85 (inactive)
- polymyxin IC50 shift [1, 3]: 0.497
- polymyxin IC50 shift [1, 4]: -3.36

Compound: O=C(Nc1ccc(Cl)cc1)N1CCCN(Cc2ccccc2Br)C1
- polymyxin IC50 shift difference WT minus phoP- [1]: -0.534 (inactive)
- polymyxin IC50 shift [1, 3]: 6.73
- polymyxin IC50 shift [1, 4]: 6.2

Compound: CCn1cc(C(=O)O)c(=O)c2cc(F)c(N3CCN(C(=S)Nc4ccccc4C)CC3)cc21
- polymyxin IC50 shift [1, 3]: -2.44
- polymyxin IC50 shift [1, 4]: 4.87
- IC50 [2]: 19 µM

Compound: O=C(Nc1ccc(I)cc1)N1CCCN(Cc2ccccc2F)C1
- polymyxin IC50 shift difference WT minus phoP- [1]: -9.38 (inactive)
- polymyxin IC50 shift [1, 3]: 5.34
- polymyxin IC50 shift [1, 4]: -4.04

Compound: CCn1cc(C(=O)O)c(=O)c2cc(F)c(N3CCN(C(=S)Nc4ccccc4OC)CC3)cc21
- polymyxin IC50 shift [1, 3]: -0.353
- polymyxin IC50 shift [1, 4]: 4.08
- IC50 [2]: 19 µM

Compound: S=C(NCCc1ccc(Cl)cc1)Nc1ccncc1
- polymyxin IC50 shift difference WT minus phoP- [1]: -1.02 (inactive)
- polymyxin IC50 shift [1, 3]: 6.57
- polymyxin IC50 shift [1, 4]: 5.55
